Here are results for ten compounds from US12655160B2, “KRAS G12D inhibitors” (Mirati Therapeutics, Inc., priority 2020, dated 2026).

In the assay the target is KRas G12D (Homo sapiens, UniProt P01116, G12D). The assay is described as follows: KRas G12D Binding Assay (TR-FRET displacement of labeled tracer). Set-up: corresponding to amino acids 1:169, produced at Array BioPharma Inc; biotin (biotinylated). The following applies: TR-FRET displacement of Cy5 labelled tracer, Biotinylated GDP-loaded KRAS G12D (amino acids 1:169), 60 minute incubation at 22° C. As for the experimental part:
This Example illustrates that exemplary compounds of the present invention bind to KRas G12D and are capable of displacing a labeled tracer ligand occupying the KRas G12D binding site. The ability of a compound to bind to KRAS G12D was measured using a TR-FRET displacement assay. Biotinylated GDP-loaded recombinant human KRAS G12D (corresponding to amino acids 1:169, produced at Array BioPharma Inc.) was incubated with a custom-made Cy5 labelled tracer, europium labelled streptavidin and compound (2% DMSO final) in buffer (50 mM HEPES [pH 7.5], 5 mM MgCl2, 0.005% Tween-20 & 1 mM DTT). After a 60 minute incubation at 22° C., the reaction was measured using a PerkinElmer EnVision multimode plate reader via TR-FRET dual wavelength detection, and the percent of control (POC) calculated using a ratiometric emission factor. […] The POC values were fit to a 4-parameter logistic curve and the IC50 value was determined as the concentration where the curve crosses 50 POC.
A general note: Time-resolved FRET reads energy transfer from a long-lived donor to a nearby acceptor.

Chain of KRas G12D (P01116 1-169 isoform P01116-2 G12D): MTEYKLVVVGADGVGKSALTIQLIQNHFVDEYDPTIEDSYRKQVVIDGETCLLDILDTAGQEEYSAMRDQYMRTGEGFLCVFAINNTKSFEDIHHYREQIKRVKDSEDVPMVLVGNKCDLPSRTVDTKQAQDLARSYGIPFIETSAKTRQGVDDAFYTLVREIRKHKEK

Take `CN(C)C1(CNc2nc(OCC34CCCN3CCC4)nc3c(F)c(-c4cccc5cccc(F)c45)ncc23)CCCC1` [Example 61, N-((1-(dimethylamino)cyclopentyl)methyl)-8-fluoro-7-(8-fluoronaphthalen-1-yl)-2-((hexahydro-1H-pyrrolizin-7a-yl)methoxy)pyrido[4,3-d]pyrimidin-4-amine]: the 50% inhibitory concentration (IC50) (commonly the concentration needed to halve the response being measured) was determined as 0.48 µM. This counts as sub-micromolar.

Take `CC(C)c1ccccc1-c1ncc2c(NCC3(N(C)C)CCC3)nc(OCC34CCCN3CCC4)nc2c1F` [Example 9, N-((1-(dimethylamino)cyclobutyl)methyl)-8-fluoro-7-(2-isopropylphenyl)-2-((tetrahydro-1H-pyrrolizin-7a(5H)-yl)methoxy)pyrido[4,3-d]pyrimidin-4-amine bis(2,2,2-trifluoroacetate)]: the IC50 is 2.17 µM. On to `CN1CCC[C@H]1COc1nc(NC2C3CNCC32)c2cnc(-c3cc(O)cc4ccccc34)c(F)c2n1` (stereo partly drawn) [Example 5, 4-(4-((3-azabicyclo[3.1.0]hexan-6-yl)amino)-8-fluoro-2-(((S)-1-methylpyrrolidin-2-yl)methoxy)pyrido[4,3-d]pyrimidin-7-yl)naphthalen-2-ol bis(2,2,2-trifluoroacetate)], for which the IC50 is 2.26 µM. The IC50 values of the last two compounds are within 1.5-fold of each other. The result for `CN(C)C1(CNc2nc(OCC34CCCN3CCC4)nc3c(F)c(-c4cccc5cccc(F)c45)ncc23)CCC1` [Example 14, N-((1-(dimethylamino)cyclobutyl)methyl)-8-fluoro-7-(8-fluoronaphthalen-1-yl)-2-((hexahydro-1H-pyrrolizin-7a-yl)methoxy)pyrido[4,3-d]pyrimidin-4-amine] reads 0.306 µM.

As to `CC#Cc1cccc2cccc(-c3ncc4c(NCC5(N(C)C)CCC5)nc(OC[C@@]56CCCN5C[C@H](F)C6)nc4c3F)c12` [Example 27, N-((1-(dimethylamino)cyclobutyl)methyl)-8-fluoro-2-(((2R,7aS)-2-fluorotetrahydro-1H-pyrrolizin-7a(5H)-yl)methoxy)-7-(8-(prop-1-yn-1-yl)naphthalen-1-yl)pyrido[4,3-d]pyrimidin-4-amine], the IC50 stood at 1.88 µM. This IC50 lies about 6.1-fold higher than the previous one.

`CN(C)C1(CNc2nc(OC[C@@]34CCCN3C[C@H](F)C4)nc3c(F)c(-c4cc(O)cc5ccccc45)ncc23)CC1` [Example 6, 4-(4-(((1-(dimethylamino)cyclopropyl)methyl)amino)-8-fluoro-2-(((2R,7aS)-2-fluorotetrahydro-1H-pyrrolizin-7a(5H)-yl)methoxy)pyrido[4,3-d]pyrimidin-7-yl)naphthalen-2-bis(2,2,2-trifluoroacetate)] had a concentration for half-maximal inhibition (IC50) of 0.117 µM. For `CN(C)C1(CNc2nc(OC[C@@]34CCCN3C[C@H](F)C4)nc3c(F)c(-c4cccc5cccc(F)c45)ncc23)CCC1` [Example 22, N-((1-(dimethylamino)cyclobutyl)methyl)-8-fluoro-7-(8-fluoronaphthalen-1-yl)-2-(((2R,7aS)-2-fluorotetrahydro-1H-pyrrolizin-7a(5H)-yl)methoxy)pyrido[4,3-d]pyrimidin-4-amine], the IC50 is 1.32 µM. `CN(C)C1(CNc2nc(OC[C@@]34CCCN3C[C@H](F)C4)nc3c(F)c(-c4cc(O)cc5ccccc45)ncc23)CCCCC1` [Example 30] came in with an IC50 of 1.58 µM. The compound `Cc1c(Cl)cc2[nH]ncc2c1-c1ncc2c(NCC3(N(C)C)CCC3)nc(OC[C@@]34CCCN3C[C@H](F)C4)nc2c1F` [Example 13, 7-(6-chloro-5-methyl-1H-indazol-4-yl)-N-((1-(dimethylamino)cyclobutyl)methyl)-8-fluoro-2-(((2R,7aS)-2-fluorotetrahydro-1H-pyrrolizin-7a(5H)-yl)methoxy)pyrido[4,3-d]pyrimidin-4-amine bis(2,2,2-trifluoroacetate)] came in with a half-inhibitory concentration (IC50) of 0.165 µM. Compared with the last compound, the IC50 is about 9.6-fold lower. Turning to `CN(C)C1(CNc2nc(OCC34CCCN3CCC4)nc3c(F)c(-c4cccc(Cl)c4C4CC4)ncc23)CCC1` [Example 16, 7-(3-chloro-2-cyclopropylphenyl)-N-((1-(dimethylamino)cyclobutyl)methyl)-8-fluoro-2-((tetrahydro-1H-pyrrolizin-7a(5H)-yl)methoxy)pyrido[4,3-d]pyrimidin-4-amine], the IC50 is 0.146 µM.
